# Test: Conversion of the aqueous slurry into form B, followed by XRPD
# Assay type: physicochemical
# Settings: 30 parts Insecticide A / 70 parts water, stirred
# Procedure: The recorded 2θ values were used to calculate the stated interplanar spacings d. The intensity of the peaks (y-axis: linear intensity counts) is plotted versus the 2θ angle (x-axis in degrees 2θ). The formulation was prepared as follows: • (a) 30 parts by weight of Insecticide A, in the form of a powder, and 70 parts by weight of water were mixed in a vessel to obtain an aqueous slurry. The particle diameter of the particles was in the range 30-800 μm. […] The temperature of grinding head was controlled at 5° C. The milling was stopped when an average particle size of 1.5-2 μm (volume average) had been achieved (measured with Malvern Mastersizer 2000). To the thus obtained suspension the remaining antifoaming agent, the preservative and the thickener and water were added to with stirring to ensure homogeneous distribution of components. The amount of water was chosen that the final concentration of the pyripyropene derivative in the formulation was 100 g/l.
structure (smiles),measurement,setting,value
C[C@]1(COC(=O)C2CC2)[C@@H]2C[C@H](O)[C@@]3(C)Oc4cc(-c5cccnc5)oc(=O)c4[C@H](O)[C@@H]3[C@@]2(C)CC[C@@H]1OC(=O)C1CC1 [Insecticide A],Conversion time (conversion of at least 90% into form B),20° C.,<190 h
same,Conversion time (conversion of at least 90% into form B),40° C.,<48 h
same,Conversion time (conversion of at least 90% into form B),60° C.,12 h

# Source: patent US9861104B2, “Method for producing an aqueous suspension concentrate formulation of a pyripyropene insecticide” (BASF SE, priority 2012, dated 2018)
